Experimental data: patent US12600709B2, “Nonpeptide somatostatin type 5 receptor agonists and uses thereof” (Crinetics Pharmaceuticals, Inc., priority 2019, dated 2026)
Read-outs that look alike come from different tables or passages of the source.

What was measured:
[1] = target: T1, human somatostatin receptor subtype 2 (Homo sapiens, UniProt P30874); assay: cAMP assay for SST2R (inhibition of cAMP in CHO-K1 cells); type: cell-based; conditions: Table B; inhibition of cAMP via human SST2 receptor; read-out: SST2 potency
T1 construct: expressed in transfected cells
T1 sequence (P30874 whole entry): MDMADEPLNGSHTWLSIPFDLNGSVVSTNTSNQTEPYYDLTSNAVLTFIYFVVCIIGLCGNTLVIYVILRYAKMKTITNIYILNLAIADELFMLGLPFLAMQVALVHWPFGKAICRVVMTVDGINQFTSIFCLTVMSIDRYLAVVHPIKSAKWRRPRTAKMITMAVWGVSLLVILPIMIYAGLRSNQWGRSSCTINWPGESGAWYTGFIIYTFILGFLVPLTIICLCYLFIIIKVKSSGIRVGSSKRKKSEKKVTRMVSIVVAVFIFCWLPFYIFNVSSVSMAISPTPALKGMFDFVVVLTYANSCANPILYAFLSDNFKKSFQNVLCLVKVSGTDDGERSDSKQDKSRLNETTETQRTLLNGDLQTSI
Summary of the method: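 Agonism read as decrease in NKH477 (1.6 μM)-stimulated cAMP: compounds applied 20 min, 37° C, with 0.2 mM IBMX, to CHO-K1 stably expressing human SSTR2. cAMP quantified in lysates by time-resolved fluorescence (HTRF kit, 1-24 h RT), standard-curve regression, then EC50.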

[2] = target: T2, human somatostatin receptor subtype 5 (Homo sapiens, UniProt P35346); assay: cAMP assay for SST5R (inhibition of cAMP in CHO-K1 cells); type: cell-based; conditions: for EC50: inhibition of cAMP via human SST5 receptor, read-out: SST5 potency; for Fold selectivity for SST5 vs SST2: class symbols, SST5 receptor over SST2 receptor
T2 construct: expressed in transfected cells
T2 sequence (P35346 whole entry): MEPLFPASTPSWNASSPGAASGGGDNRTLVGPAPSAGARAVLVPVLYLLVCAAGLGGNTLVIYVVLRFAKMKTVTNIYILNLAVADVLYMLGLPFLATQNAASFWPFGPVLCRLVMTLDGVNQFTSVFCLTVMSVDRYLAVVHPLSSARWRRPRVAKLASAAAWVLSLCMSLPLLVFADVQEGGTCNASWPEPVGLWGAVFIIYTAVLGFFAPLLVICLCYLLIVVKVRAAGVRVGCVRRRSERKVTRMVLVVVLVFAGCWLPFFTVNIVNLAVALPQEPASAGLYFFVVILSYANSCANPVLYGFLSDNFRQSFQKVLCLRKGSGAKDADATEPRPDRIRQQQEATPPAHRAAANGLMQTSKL
Summary of the method: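 CHO-K1 cells stably expressing human SSTR5 were treated 20 min at 37 °C with compounds plus 1.6 μM NKH477 in HBSS, 0.5 mM HEPES pH 7.4, 0.1% BSA, 0.2 mM IBMX. Lysate cAMP measured by HTRF against a standard curve; EC50 from cAMP-versus-concentration plots.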

SMILES	EC50 [1] [nM]	EC50 ([2]; Table A) [nM]	Fold selectivity for SST5 vs SST2 ([2]; Table B)	EC50 ([2]; Table B) [nM]
COc1ncc(C(=O)N[C@@H](C)C(F)(F)F)c(N2CC[C@](C)(N)C2)c1-c1ccc(F)c(Cl)c1 [1-261, 4-[(3S)-3-amino-3-methylpyrrolidin-1-yl]-5-(3-chloro-4-fluorophenyl)-6-methoxy-N-[(2S)-1,1,1-trifluoropropan-2-yl]pyridine-3-carboxamide]	100 to 1000	< 10	+++ (+++=>500)	< 10
CCOc1cc(-c2c(C(F)(F)F)ncc(C(=O)N[C@@H](C)C3CC3)c2N2CC[C@](C)(N)C2)ccn1 [1-206, 4-[(3S)-3-amino-3-methylpyrrolidin-1-yl]-N-[(1S)-1-cyclopropylethyl]-2′-ethoxy-2-(trifluoromethyl)-[3,4′-bipyridine]-5-carboxamide]	> 1000	< 10	+++ (+++=>500)	< 10
C[C@]1(N)CCN(c2c(C(=O)NC3CCCCC3)cnc(C(F)(F)F)c2-c2cc(F)cc(F)c2)C1 [1-210, 4-[(3S)-3-amino-3-methylpyrrolidin-1-yl]-N-cyclohexyl-5-(3,5-difluorophenyl)-6-(trifluoromethyl)pyridine-3-carboxamide]	10 to 100	< 10	+++ (+++=>500)	< 10
Cc1cccc2[nH]c(-c3cncc(C(=O)NCC(F)(F)F)c3N3CC[C@](C)(N)C3)nc12 [2-7, 4-[(3S)-3-amino-3-methylpyrrolidin-1-yl]-5-(4-methyl-1H-1,3-benzodiazol-2-yl)-N-(2,2,2-trifluoroethyl)pyridine-3-carboxamide]	100 to 1000	< 10	++ (++=100 to 499)	< 10
COc1ncc(C(=O)NC23CC(C2)C3)c(N2CC[C@](C)(N)C2)c1-c1cc(F)cc(F)c1 [1-130, 4-[(3S)-3-amino-3-methylpyrrolidin-1-yl]-N-{bicyclo[1.1.1]pentan-1-yl}-5-(3,5-difluorophenyl)-6-methoxypyridine-3-carboxamide]	100 to 1000	< 10	+++ (+++=>500)	< 10
CC(NC(=O)c1cnc(C#N)c(-c2cc(F)cc(F)c2)c1N1CC[C@](C)(N)C1)c1ccon1 (stereo partly drawn) [1-132, 4-[(3S)-3-amino-3-methylpyrrolidin-1-yl]-6-cyano-5-(3,5-difluorophenyl)-N-[1-(1,2-oxazol-3-yl)ethyl]pyridine-3-carboxamide]	> 1000	< 10	+++ (+++=>500)	< 10
Cc1cccc(NC(=O)c2cncc(-c3ccnc(C#N)c3)c2N2CC[C@](C)(N)C2)c1 [1-5, 4-[(3S)-3-amino-3-methylpyrrolidin-1-yl]-2′-cyano-N-(3-methylphenyl)-[3,4′-bipyridine]-5-carboxamide]	100 to 1000	< 10	+++ (+++=>500)	< 10
Cn1nccc1CNC(=O)c1cnc(C#N)c(-c2cc(F)cc(F)c2)c1N1CC[C@](C)(N)C1 [1-104, 4-[(3S)-3-amino-3-methylpyrrolidin-1-yl]-6-cyano-5-(3,5-difluorophenyl)-N-[(1-methyl-1H-pyrazol-5-yl)methyl]pyridine-3-carboxamide]	> 1000	< 10	+++ (+++=>500)	< 10

Next, values leading:

EC50 [1] [nM]	EC50 ([2]; Table A) [nM]	Fold selectivity for SST5 vs SST2 ([2]; Table B)	EC50 ([2]; Table B) [nM]	SMILES
> 1000	< 10	+++ (+++=>500)	< 10	C[C@H](NC(=O)c1cnc(OCCCC(=O)O)c(-c2cc(F)cc(F)c2)c1N1CC[C@](C)(N)C1)C1CC1 [1-265, 4-({4-[(3S)-3-amino-3-methylpyrrolidin-1-yl]-5-{[(1S)-1-cyclopropylethyl]carbamoyl}-3-(3,5-difluorophenyl)pyridin-2-yl}oxy)butanoic acid]
100 to 1000	< 10	+++ (+++=>500)	< 10	COc1ncc(C(=O)N[C@@H](C)C2CC2)c(N2CC[C@](C)(N)C2)c1-c1cc(F)cc(C#N)c1 [1-153, 4-[(3S)-3-amino-3-methylpyrrolidin-1-yl]-5-(3-cyano-5-fluorophenyl)-N-[(1S)-1-cyclopropylethyl]-6-methoxypyridine-3-carboxamide]
100 to 1000	< 10	++ (++=100 to 499)	< 10	Cc1ncc(C(=O)N[C@@H](C)C2CC2)c(N2CC[C@](C)(N)C2)c1-c1cc(F)cc(OC(F)F)c1 [1-173, 4-[(3S)-3-amino-3-methylpyrrolidin-1-yl]-N-[(1S)-1-cyclopropylethyl]-5-[3-(difluoromethoxy)-5-fluorophenyl]-6-methylpyridine-3-carboxamide]
100 to 1000	< 10	+++ (+++=>500)	< 10	C[C@H](NC(=O)c1cnc(C#N)c(-c2cc(F)cc(F)c2)c1N1C[C@@H](N)[C@H](F)C1)C1CC1 [1-135, 4-[(3R,4R)-3-amino-4-fluoropyrrolidin-1-yl]-6-cyano-N-[(1S)-1-cyclopropylethyl]-5-(3,5-difluorophenyl)pyridine-3-carboxamide]
100 to 1000	< 10	+++ (+++=>500)	< 10	Cc1ncc(C(=O)N[C@@H](C)C2CC2)c(N2CC[C@](C)(N)C2)c1-c1cc(F)cc(F)c1 [1-122, 4-[(3S)-3-amino-3-methylpyrrolidin-1-yl]-N-[(1S)-1-cyclopropylethyl]-5-(3,5-difluorophenyl)-6-methylpyridine-3-carboxamide]
100 to 1000	< 10	+++ (+++=>500)	< 10	Cc1ncc(C(=O)N[C@@H](C)C2CC2)c(N2CC[C@H](N)C2)c1-c1cc(F)cc(Cl)c1 [1-272, 4-[(3S)-3-aminopyrrolidin-1-yl]-5-(3-chloro-5-fluorophenyl)-N-[(1S)-1-cyclopropylethyl]-6-methylpyridine-3-carboxamide]
> 1000	< 10	+++ (+++=>500)	< 10	N#Cc1ncc(C(=O)NC2CC(F)(F)C2)c(N2CC[C@H](N)C2)c1-c1cc(F)cc(F)c1 [1-68, 4-[(3S)-3-aminopyrrolidin-1-yl]-6-cyano-N-(3,3-difluorocyclobutyl)-5-(3,5-difluorophenyl)pyridine-3-carboxamide]
100 to 1000	< 10	+++ (+++=>500)	< 10	Cc1ncc(C(=O)N[C@@H](C)C2CC2)c(N2CC[C@](C)(N)C2)c1-c1cccc(F)c1 [1-124, 4-[(3S)-3-amino-3-methylpyrrolidin-1-yl]-N-[(1S)-1-cyclopropylethyl]-5-(3-fluorophenyl)-6-methylpyridine-3-carboxamide]
100 to 1000	< 10	+++ (+++=>500)	< 10	Cc1ncc(C(=O)N[C@@H](C)C(F)(F)F)c(N2CC[C@](C)(N)C2)c1-c1ccc(F)c(F)c1 [1-279, 4-[(3S)-3-amino-3-methylpyrrolidin-1-yl]-5-(3,4-difluorophenyl)-6-methyl-N-[(2S)-1,1,1-trifluoropropan-2-yl]pyridine-3-carboxamide]
